From patent US20210221866A1, “PROTEASE-RESISTANT LIPIDATED GLP-1 ANALOGS” (MEDIMMUNE LIMITED, priority 2015, published 2021)
Like-named read-outs stand apart in the source and are kept apart here. Numbered stars: 1 amine (or outer) side, 2 acyl side, 3 side chain; on linkers, the order of the positions; unused ones are H or OH. Square brackets hold non-standard residues; d marks the D form. Side chains are listed from the residue outwards. Peptide text beside a SMILES is read from it. * marks the point of attachment. C18 diacid = O=C(O)CCCCCCCCCCCCCCCCC(=O)*; γGlu = O=C(O)[C@H](CCC(=O)[*:2])N[*:1]; αMeF = C[C@](N)(Cc1ccccc1)C(=O)O; αMeK = C[C@](N)(CCCCN)C(=O)O; αMeS = C[C@](N)(CO)C(=O)O; AEEA = NCCOCCOCC(=O)O; Aib = CC(C)(N)C(=O)O

How the values were obtained:
Format in all cases: cell-based
[1] = molecular target: T1, human GLP-1 receptor (GLP-1R) (Homo sapiens, UniProt P43220); assay: cAMP assay, human GLP-1R cells; conditions: cAMP activity
T1 construct: expressed in transfected cells; host or cells: HEK293 cells or CHO cells
Summary of the method: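 Peptide-stimulated cAMP measured by two-step HTRF after a 30 min room-temperature incubation with receptor-expressing cells (hGLP-1R, hGIPR at 1×10^5 cells/ml; hGCGR at 2×10^5 cells/ml). Duplicate dilutions; EC50 from 4-parameter logistic fit of % Delta F.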

[2] = molecular target: T2, human glucagon receptor (GCGR) (Homo sapiens, UniProt P47871); assay: cAMP assay, human GCGR cells; conditions: cAMP activity; second determination (n2); read-out: Primary assay EC50 Gluc-R
T2 construct: expressed in transfected cells; host or cells: HEK293 cells or CHO cells
Method: (§1) Sample dilutions are made in duplicate.
(§2) A frozen cryo-vial of cells expressing the receptor of interest is thawed rapidly in a water-bath, transferred to pre-warmed assay buffer and spun at 240×g for 5 minutes. Cells are re-suspended in assay buffer at a batch-dependent optimized concentration (e.g. hGCGR cells at 2×10^5 cells/ml, hGLP-1R and hGIPR cells at 1×10^5 cells/ml).
(§3) To this, 5 μL cell suspension is added and the plates incubated at room temperature for 30 minutes.
(§4) cAMP levels are measured using a commercially available cAMP dynamic 2 HTRF kit (Cisbio, Cat #62AM4PEJ), following the two step protocol as per manufacturer's recommendations. In brief; anti-cAMP cryptate (donor fluorophore) and cAMP-d2 (acceptor fluorophore) are made up separately by diluting each 1/20 in conjugate & lysis buffer provided in the kit. 5 μL anti-cAMP cryptate is added to wells of the assay plate, and 5 μL cAMP-d2 is added to wells except non-specific binding (NSB) wells, to which conjugate and lysis buffer are added. […] EC50 values of the synthetic peptides determined in cAMP assays are then determined.
(§5) Data is transformed to % Delta F as described in the manufacturer's guidelines and analyzed by 4-parameter logistic fit to determine EC50 values. […] To compare the balance of activities at the GLP-1R and GCGR between different peptides and across different conditions, these can be correlated, where the EC50's are related to those of comparator peptides.

[3] = molecular target: T3, human glucose-dependent insulinotropic peptide receptor (GIPR) (Homo sapiens, UniProt P48546); assay: cAMP assay, human GIPR cells; conditions: cAMP activity, read-out: Primary assay EC50 GIP-R
T3 construct: expressed in transfected cells; host or cells: HEK293 cells or CHO cells
T3 sequence (P48546 22-466): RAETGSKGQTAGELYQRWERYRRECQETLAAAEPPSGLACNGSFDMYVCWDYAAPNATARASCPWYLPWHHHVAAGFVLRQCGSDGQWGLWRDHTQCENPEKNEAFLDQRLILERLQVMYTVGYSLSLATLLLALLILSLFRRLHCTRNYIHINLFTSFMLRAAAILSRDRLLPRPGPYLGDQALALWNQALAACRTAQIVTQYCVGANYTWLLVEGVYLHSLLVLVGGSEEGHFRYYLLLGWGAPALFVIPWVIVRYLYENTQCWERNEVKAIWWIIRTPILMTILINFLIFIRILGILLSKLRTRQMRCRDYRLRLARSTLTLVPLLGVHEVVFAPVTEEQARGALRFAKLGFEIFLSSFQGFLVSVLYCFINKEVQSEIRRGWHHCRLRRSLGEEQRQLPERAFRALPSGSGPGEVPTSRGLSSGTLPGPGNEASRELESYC
Method: as §1, §2, §3, §4, §5

[4] = first determination (n1), read-out: Primary assay EC50 GLP-1R n1
[5] = mean of n1 and n2, read-out: Mean pM GLP-1R
[6] = second determination (n2), read-out: Primary assay EC50 GLP-1R n2

T2 sequence (P47871 26-477): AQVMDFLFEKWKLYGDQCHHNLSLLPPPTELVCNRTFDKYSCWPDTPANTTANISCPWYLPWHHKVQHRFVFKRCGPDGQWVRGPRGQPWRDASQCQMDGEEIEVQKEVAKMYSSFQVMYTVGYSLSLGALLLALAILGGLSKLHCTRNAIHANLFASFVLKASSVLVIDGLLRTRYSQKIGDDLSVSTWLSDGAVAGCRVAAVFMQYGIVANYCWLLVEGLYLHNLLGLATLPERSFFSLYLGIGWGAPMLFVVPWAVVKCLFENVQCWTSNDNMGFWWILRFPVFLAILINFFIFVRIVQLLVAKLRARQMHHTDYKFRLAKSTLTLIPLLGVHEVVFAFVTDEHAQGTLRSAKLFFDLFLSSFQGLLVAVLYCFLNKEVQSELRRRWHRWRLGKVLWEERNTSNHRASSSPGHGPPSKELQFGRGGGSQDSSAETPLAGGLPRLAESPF
T1 sequence (P43220 24-463): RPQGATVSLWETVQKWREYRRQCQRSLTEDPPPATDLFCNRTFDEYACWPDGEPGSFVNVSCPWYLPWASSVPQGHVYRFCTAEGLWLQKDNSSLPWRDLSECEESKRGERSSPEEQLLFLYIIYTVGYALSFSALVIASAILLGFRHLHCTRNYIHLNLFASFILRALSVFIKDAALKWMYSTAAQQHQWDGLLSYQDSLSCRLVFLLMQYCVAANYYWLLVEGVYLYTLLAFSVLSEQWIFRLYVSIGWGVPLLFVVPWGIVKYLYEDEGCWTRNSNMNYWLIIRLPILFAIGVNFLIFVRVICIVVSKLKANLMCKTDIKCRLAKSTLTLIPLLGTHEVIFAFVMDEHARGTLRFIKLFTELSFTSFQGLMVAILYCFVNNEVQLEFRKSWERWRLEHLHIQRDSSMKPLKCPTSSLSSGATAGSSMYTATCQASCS

| EC50 [1, 4] [pM] | EC50 [1, 5] [pM] | EC50 [1, 6] [pM] | EC50 [2] [nM] | EC50 ([3]; first determination (n1)) [nM] | EC50 ([3]; second determination (n2)) [nM] | SMILES |
| --- | --- | --- | --- | --- | --- | --- |
| 6500 | 6140 | 5790 | ≥ 25.3 | ≥ 25 | ≥ 25.3 | CC(C)C[C@H](NC(=O)[C@](C)(Cc1ccccc1)NC(=O)[C@H](CO)NC(=O)[C@](C)(CO)NC(=O)[C@@H](NC(=O)[C@H](CC(=O)O)NC(=O)[C@H](CO)NC(=O)[C@@H](NC(=O)[C@](C)(Cc1ccccc1)NC(=O)[C@H](CO)NC(=O)CNC(=O)[C@H](CCC(=O)O)NC(=O)C(C)(C)NC(=O)[C@@H](N)Cc1c[nH]cn1)[C@@H](C)O)C(C)C)C(=O)N[C@@H](CCC(=O)O)C(=O)NCC(=O)N[C@@H](CCC(=O)O)C(=O)N[C@@H](C)C(=O)N[C@@H](C)C(=O)N[C@@](C)(CCCCN)C(=O)N[C@@H](CCC(=O)O)C(=O)N[C@@](C)(Cc1ccccc1)C(=O)N[C@@H](CCCCNC(=O)COCCOCCNC(=O)COCCOCCNC(=O)CC[C@H](NC(=O)CCCCCCCCCCCCCCCCC(=O)O)C(=O)O)C(=O)N[C@@H](C)C(=O)N[C@@](C)(Cc1ccccc1)C(=O)N[C@H](C(=O)N[C@H](C(=O)N[C@@](C)(CCCCN)C(=O)NCC(=O)NCC(N)=O)C(C)C)C(C)C [compound 106] (H-H[Aib]EGS[αMeF]TSDV[αMeS]S[αMeF]LEGEAA[αMeK]E[αMeF]K([AEEA-AEEA-γGlu-C18 diacid])A[αMeF]VV[αMeK]GG-NH2) |
| 810 | 783 | 758 | ≥ 25.2 | ≥ 25 | ≥ 25.2 | CC[C@H](C)[C@H](NC(=O)[C@](C)(Cc1ccccc1)NC(=O)[C@H](CCC(=O)O)NC(=O)[C@](C)(CCCCN)NC(=O)[C@H](C)NC(=O)[C@H](C)NC(=O)[C@H](CCC(=O)O)NC(=O)CNC(=O)[C@H](CCC(=O)O)NC(=O)[C@H](CC(C)C)NC(=O)[C@](C)(Cc1ccccc1)NC(=O)[C@H](CO)NC(=O)[C@H](CCCCNC(=O)COCCOCCNC(=O)COCCOCCNC(=O)CC[C@H](NC(=O)CCCCCCCCCCCCCCCCC(=O)O)C(=O)O)NC(=O)[C@@H](NC(=O)[C@H](CC(=O)O)NC(=O)[C@H](CO)NC(=O)[C@@H](NC(=O)[C@](C)(Cc1ccccc1)NC(=O)[C@H](CO)NC(=O)CNC(=O)[C@H](CCC(=O)O)NC(=O)C(C)(C)NC(=O)[C@@H](N)Cc1c[nH]cn1)[C@@H](C)O)C(C)C)C(=O)N[C@@H](C)C(=O)N[C@@](C)(Cc1ccccc1)C(=O)N[C@H](C(=O)N[C@H](C(=O)N[C@@](C)(CCCCN)C(=O)NCC(=O)NCC(N)=O)C(C)C)C(C)C [compound 118] |
| ≥ 25000 | ≥ 25100 | ≥ 25100 | ≥ 25.1 | ≥ 25 | ≥ 25.1 | CC[C@H](C)[C@H](NC(=O)[C@](C)(Cc1ccccc1)NC(=O)[C@H](CCC(=O)O)NC(=O)[C@](C)(CCCCN)NC(=O)[C@H](C)NC(=O)[C@H](C)NC(=O)[C@H](CCC(=O)O)NC(=O)CNC(=O)[C@H](CCC(=O)O)NC(=O)[C@H](CC(C)C)NC(=O)[C@](C)(Cc1ccccc1)NC(=O)[C@H](CO)NC(=O)[C@](C)(CO)NC(=O)[C@@H](NC(=O)[C@H](CC(=O)O)NC(=O)[C@H](CCCCNC(=O)COCCOCCNC(=O)COCCOCCNC(=O)CC[C@H](NC(=O)CCCCCCCCCCCCCCCCC(=O)O)C(=O)O)NC(=O)[C@@H](NC(=O)[C@](C)(Cc1ccccc1)NC(=O)[C@H](CO)NC(=O)CNC(=O)[C@H](CCC(=O)O)NC(=O)C(C)(C)NC(=O)[C@@H](N)Cc1c[nH]cn1)[C@@H](C)O)C(C)C)C(=O)N[C@@H](C)C(=O)N[C@@](C)(Cc1ccccc1)C(=O)N[C@H](C(=O)N[C@H](C(=O)N[C@@](C)(CCCCN)C(=O)NCC(=O)NCC(N)=O)C(C)C)C(C)C [compound 121] (H-H[Aib]EGS[αMeF]TK([AEEA-AEEA-γGlu-C18 diacid])DV[αMeS]S[αMeF]LEGEAA[αMeK]E[αMeF]IA[αMeF]VV[αMeK]GG-NH2; N-terminus assumed) |
